Reference: ChEMBL document CHEMBL1201862, “PubChem BioAssay data set” (2004)
Active and inactive are the calls of the source.

Columns and labels:
[1] = molecular target: Neurotensin receptor type 1 (Homo sapiens, UniProt P30989); assay type: functional;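 note: Image-based confirmatory dose-response assay measuring agonist activity at NTR1; NTR1-expressing U2OS osteosarcoma cells imaged for beta-arrestin GFP spot formation; agonist potency where compounds increase beta-arrestin recruitment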
Prothrombin = Prothrombin (Homo sapiens, UniProt P00734); assay: Thrombin 1536 HTS Dose Response Confirmation. [Related pubchem assays: 1046 (Thrombin 1536 HTS; hits were confirmed in this assay)]; assay type: functional
Hexokinase HKDC1 = Hexokinase HKDC1 (Homo sapiens, UniProt Q2TB90); assay: HKDC1 hexokinase inhibitors, dose response, biochemical, W721R variant (AID 504729); assay type: functional
[2] = molecular target: T1, Calpain-2 catalytic subunit (Sus scrofa, UniProt P43367); assay: pig calpain II inhibitor potency, dose response, biochemical, fluorogenic peptide substrate (AID 1420); assay type: functional
T1 sequence (P43367 whole entry): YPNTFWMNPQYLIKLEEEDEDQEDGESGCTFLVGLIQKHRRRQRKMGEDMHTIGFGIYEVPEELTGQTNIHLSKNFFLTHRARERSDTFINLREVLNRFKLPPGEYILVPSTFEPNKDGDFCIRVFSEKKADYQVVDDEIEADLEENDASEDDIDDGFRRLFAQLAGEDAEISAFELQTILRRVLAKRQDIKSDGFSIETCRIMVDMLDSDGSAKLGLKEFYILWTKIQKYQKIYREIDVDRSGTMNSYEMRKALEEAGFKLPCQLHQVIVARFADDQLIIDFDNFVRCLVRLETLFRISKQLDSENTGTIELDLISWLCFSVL

[3] = molecular target: T2, Alkaline phosphatase, tissue-nonspecific isozyme (Homo sapiens, UniProt P05186)
T2 sequence (P05186 whole entry): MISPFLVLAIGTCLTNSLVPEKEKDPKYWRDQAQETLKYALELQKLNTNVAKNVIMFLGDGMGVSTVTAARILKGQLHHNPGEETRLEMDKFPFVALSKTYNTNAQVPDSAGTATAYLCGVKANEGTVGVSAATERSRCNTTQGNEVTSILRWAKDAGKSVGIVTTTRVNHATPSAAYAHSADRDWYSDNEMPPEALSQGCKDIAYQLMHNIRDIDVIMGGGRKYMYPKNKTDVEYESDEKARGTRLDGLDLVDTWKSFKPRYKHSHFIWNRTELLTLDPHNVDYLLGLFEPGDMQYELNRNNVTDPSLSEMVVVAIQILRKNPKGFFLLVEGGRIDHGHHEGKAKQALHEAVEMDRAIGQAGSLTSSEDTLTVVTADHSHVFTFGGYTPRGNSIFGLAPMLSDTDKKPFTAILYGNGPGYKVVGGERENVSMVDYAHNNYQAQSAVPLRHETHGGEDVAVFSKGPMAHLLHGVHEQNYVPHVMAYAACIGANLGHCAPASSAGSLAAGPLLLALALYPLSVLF

[4] = molecular target: Peroxisome proliferator-activated receptor gamma/Nuclear receptor coactivator 3 (Homo sapiens, UniProt P37231); assay: (§1) TR-FRET dose response biochemical High Throughput Screening assay for agonists of the steroid receptor coactivator 3 (SRC-3) recruitment by the peroxisome proliferator-activated receptor gamma (PPAR gamma): non-selective agonists. [Related pubchem assays: 1301 (Confirmation screen.), 1048 (Primary screen.)]; assay type: functional
[5] = molecular target: Photoreceptor-specific nuclear receptor (Homo sapiens, UniProt Q9Y5X4); assay type: functional;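 note: potency for compounds that break the NR2E3 corepressor complex and count as activators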
[6] = molecular target: Peroxisome proliferator-activated receptor gamma/Nuclear receptor corepressor 2 (Homo sapiens, UniProt P37231+Q9Y618); assay type: functional
[7] = molecular target: Peroxisome proliferator-activated receptor gamma/Nuclear receptor coactivator 1 (Homo sapiens, UniProt P37231); assay: as §1, with “1 (SRC-1)” for “3 (SRC-3)”, “assays (depositor defined):AID1300, AID1808, AID504735, AID631]” for “assays: 1301 (Confirmation screen.), 1048 (Primary screen.)]”; assay type: protein assay
[8] = molecular target: Peroxisome proliferator-activated receptor gamma/Nuclear receptor coactivator 2 (Homo sapiens, UniProt P37231); assay: TR-FRET dose response biochemical High Throughput Screening assay for agonists of the steroid receptor coactivator 2 (SRC-2) recruitment by the peroxisome proliferator-activated receptor gamma (PPAR gamma): non-selective agonists. [Related pubchem assays: 1297, 1032 ]; assay type: functional
Cytochrome P450 2C19 = Cytochrome P450 2C19 (Homo sapiens, UniProt P33261); assay: Cytochrome panel assay with activity outcomes. Panel member name: p450-cyp2c19 Compounds with AC50 equal or less than 10 uM are considered active; assay type: functional; settings: read-out: AC50
[9] = molecular target: T3, Fructose-bisphosphate aldolase (Mycobacterium tuberculosis, UniProt P9WQA3); assay: Fluorescence-based biochemical high throughput dose response assay for inhibitors of the fructose-bisphosphate aldolase (FBA) of M. tuberculosis.; assay type: functional
T3 sequence (P9WQA3 whole entry): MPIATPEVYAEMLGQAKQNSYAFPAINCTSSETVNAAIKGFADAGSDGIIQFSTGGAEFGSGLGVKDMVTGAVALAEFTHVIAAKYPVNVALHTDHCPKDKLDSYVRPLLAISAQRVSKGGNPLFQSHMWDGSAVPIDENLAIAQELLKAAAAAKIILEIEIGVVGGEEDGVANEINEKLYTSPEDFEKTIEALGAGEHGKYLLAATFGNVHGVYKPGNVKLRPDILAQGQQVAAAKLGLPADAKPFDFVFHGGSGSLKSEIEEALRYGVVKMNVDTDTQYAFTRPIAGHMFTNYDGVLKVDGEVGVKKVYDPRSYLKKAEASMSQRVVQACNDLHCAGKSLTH

[10] = molecular target: Cyclin-dependent kinase 5/CDK5 activator 1 (Homo sapiens, UniProt Q00535); assay: CDK5/p35 kinase inhibitors, dose response, biochemical, cherry-picked samples, set 2 (AID 504545)
[11] = A small molecule screen for inhibitors of the PhoP region in Salmonella typhi (3) using purified and synthesized compounds. [Related pubchem assays (depositor defined):AID1850, AID1864, AID1985, AID2252, AID2384, AID2612, AID2811, AID449743, AID463179]; assay type: functional
[12] = molecular target: G2/mitotic-specific cyclin-B1 (Homo sapiens, UniProt P14635); assay: G2/M cell cycle arrest in HeLa, late-stage follow-up, mechanism study for Wee1 degradation inhibitor project, FACS, panel member Cyclin B Degradation (AID 2088)
Wee1-like protein kinase = Wee1-like protein kinase (Homo sapiens, UniProt P30291); assay: G2/M cell cycle arrest in HeLa, late-stage follow-up, mechanism study for Wee1 degradation inhibitor project, FACS, panel member Wee1 Degradation (AID 2088)
Cysteine protease ATG4B = molecular target: T4, Cysteine protease ATG4B (Homo sapiens, UniProt Q9Y4P1); assay type: functional;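 note: Fluorescence-based dose-response confirmation assay measuring inhibition of ATG4B activity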
T4 sequence (Q9Y4P1 whole entry): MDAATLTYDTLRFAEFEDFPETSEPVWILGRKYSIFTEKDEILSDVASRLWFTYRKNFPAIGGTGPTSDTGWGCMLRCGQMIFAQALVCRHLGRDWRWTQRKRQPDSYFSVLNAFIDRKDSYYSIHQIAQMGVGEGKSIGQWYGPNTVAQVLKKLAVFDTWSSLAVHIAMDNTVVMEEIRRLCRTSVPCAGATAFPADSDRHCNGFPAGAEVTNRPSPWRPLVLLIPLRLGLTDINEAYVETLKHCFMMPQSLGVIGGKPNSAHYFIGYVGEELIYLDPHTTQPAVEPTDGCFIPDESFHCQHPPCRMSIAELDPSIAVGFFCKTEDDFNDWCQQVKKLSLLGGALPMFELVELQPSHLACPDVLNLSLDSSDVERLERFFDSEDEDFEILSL

[13] = molecular target: T5, Dual specificity protein phosphatase 6 (Rattus norvegicus, UniProt Q64346)
T5 sequence (Q64346 whole entry): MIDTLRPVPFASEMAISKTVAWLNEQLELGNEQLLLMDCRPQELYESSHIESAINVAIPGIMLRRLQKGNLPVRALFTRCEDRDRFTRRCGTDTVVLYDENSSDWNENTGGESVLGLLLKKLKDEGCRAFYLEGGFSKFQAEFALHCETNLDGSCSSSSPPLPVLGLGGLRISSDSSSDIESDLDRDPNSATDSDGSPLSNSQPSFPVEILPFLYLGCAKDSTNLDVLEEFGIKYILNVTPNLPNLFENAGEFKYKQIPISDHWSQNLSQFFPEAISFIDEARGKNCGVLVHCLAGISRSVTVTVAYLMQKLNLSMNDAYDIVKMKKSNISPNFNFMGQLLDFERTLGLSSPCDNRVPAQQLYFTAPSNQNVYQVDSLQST

[14] = molecular target: Heat shock cognate 71 kDa protein (Homo sapiens, UniProt P11142); assay: In Vitro Hsc70 Dose Response Fluorescence Polarization Assay. [Related pubchem assays: 1072 ]
[15] = molecular target: T6, RNA-binding protein pos-1 (Caenorhabditis elegans, UniProt G5EF15); assay: inhibitors of POS-1/mex-3 RNA binding, dose response, biochemical, fluorescence polarization (AID 1964);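 note: purified POS-1 fused to maltose binding protein made in E. coli; potency of compounds blocking POS-1 binding to fluorescent RNA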
T6 sequence (G5EF15 whole entry): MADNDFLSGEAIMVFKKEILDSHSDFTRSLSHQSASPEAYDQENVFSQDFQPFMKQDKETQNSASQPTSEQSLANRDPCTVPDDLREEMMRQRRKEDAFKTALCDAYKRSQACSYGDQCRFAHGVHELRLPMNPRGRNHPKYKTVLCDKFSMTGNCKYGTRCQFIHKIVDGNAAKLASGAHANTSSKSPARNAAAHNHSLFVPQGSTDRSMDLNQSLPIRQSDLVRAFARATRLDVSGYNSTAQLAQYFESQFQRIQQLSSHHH

HeLa = assay: HeLa cell cytotoxicity, dose response, cytotoxicity control, 24 h, cherry-picked samples (AID 504726); assay type: functional, cell-based; settings: Homo sapiens;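 note: potency for cytotoxicity as loss of luminescence signal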
Vero = Vero cell cytotoxicity, cytotoxicity control for flavivirus capping enzyme inhibitors (AID 588742); assay type: functional; settings: Chlorocebus sabaeus
[16] = molecular target: Glyceraldehyde-3-phosphate dehydrogenase (Homo sapiens, UniProt P04406)
[17] = molecular target: T5, Dual specificity protein phosphatase 6; assay type: functional
ORF 73 = ORF 73 (Human herpesvirus 8, UniProt O40947); assay: inhibitors of C-LANA binding to LBS DNA, dose response, biochemical, fluorescence polarization, cherry-picked samples (AID 504725); parameters: species or system Human gammaherpesvirus 8;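 note: fluorescence polarization of a labeled DNA duplex reporting LANA DNA binding; potency is for inhibitors that block LANA binding to the DNA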
[18] = molecular target: T7, Zinc finger protein mex-5 (Caenorhabditis elegans, UniProt Q9XUB2); assay: MEX-5/TCR-2 RNA interaction inhibitors, dose response, biochemical, C. elegans, fluorescence polarization (AID 1960)
T7 sequence (Q9XUB2 whole entry): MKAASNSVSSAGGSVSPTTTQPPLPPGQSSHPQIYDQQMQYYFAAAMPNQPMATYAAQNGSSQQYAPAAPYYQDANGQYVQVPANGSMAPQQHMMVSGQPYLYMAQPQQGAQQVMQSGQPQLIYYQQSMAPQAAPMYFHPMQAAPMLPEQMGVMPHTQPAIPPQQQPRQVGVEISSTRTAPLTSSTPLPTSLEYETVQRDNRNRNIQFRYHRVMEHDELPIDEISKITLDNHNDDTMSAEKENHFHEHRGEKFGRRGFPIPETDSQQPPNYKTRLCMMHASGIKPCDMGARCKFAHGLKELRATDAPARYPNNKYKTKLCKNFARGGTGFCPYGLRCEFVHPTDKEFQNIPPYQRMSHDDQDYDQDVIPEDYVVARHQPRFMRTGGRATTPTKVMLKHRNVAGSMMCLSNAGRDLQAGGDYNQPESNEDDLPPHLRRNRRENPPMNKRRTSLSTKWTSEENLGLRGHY

[19] = molecular target: Heat shock 70 kDa protein 1A (Homo sapiens, UniProt P0DMV8); assay: Hsp70 inhibitors, SAR follow-up, biochemical, fluorescence polarization (AID 1072)
Phospholipase A2 = Phospholipase A2 (Homo sapiens, UniProt P04054); assay type: functional;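 note: confirmatory dose-response counterscreen on phospholipase A2, testing hits that came from an ultra-high-throughput screen for ATG4B inhibitors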
[20] = molecular target: T8, Tyrosine-protein phosphatase non-receptor type 7 (Homo sapiens, UniProt P35236); assay type: functional
T8 sequence (P35236 whole entry): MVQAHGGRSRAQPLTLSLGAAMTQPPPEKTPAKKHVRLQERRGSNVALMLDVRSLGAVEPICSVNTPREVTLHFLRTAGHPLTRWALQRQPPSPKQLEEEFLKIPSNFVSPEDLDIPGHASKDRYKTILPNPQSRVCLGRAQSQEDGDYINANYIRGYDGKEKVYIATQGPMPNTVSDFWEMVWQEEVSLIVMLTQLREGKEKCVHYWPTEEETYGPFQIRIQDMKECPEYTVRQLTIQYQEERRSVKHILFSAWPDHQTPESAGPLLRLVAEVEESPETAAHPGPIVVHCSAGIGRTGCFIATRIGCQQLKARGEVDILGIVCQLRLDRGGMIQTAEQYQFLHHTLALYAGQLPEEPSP

Sequence of Cytochrome P450 2C19 (P33261 whole entry): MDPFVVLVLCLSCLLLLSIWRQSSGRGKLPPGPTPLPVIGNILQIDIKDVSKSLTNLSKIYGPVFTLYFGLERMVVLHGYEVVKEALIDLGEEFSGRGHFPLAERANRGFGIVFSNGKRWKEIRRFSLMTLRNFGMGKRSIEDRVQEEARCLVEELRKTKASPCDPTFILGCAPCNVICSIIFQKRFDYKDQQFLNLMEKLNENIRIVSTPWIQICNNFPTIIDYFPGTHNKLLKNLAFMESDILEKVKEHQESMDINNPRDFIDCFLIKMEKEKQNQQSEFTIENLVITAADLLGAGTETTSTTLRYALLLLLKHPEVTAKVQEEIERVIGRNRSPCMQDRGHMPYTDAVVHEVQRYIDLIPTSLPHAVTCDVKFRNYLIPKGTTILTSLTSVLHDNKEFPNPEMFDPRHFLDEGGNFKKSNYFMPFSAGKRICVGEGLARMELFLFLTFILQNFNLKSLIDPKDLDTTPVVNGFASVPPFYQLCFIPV
Sequence of Hexokinase HKDC1 (Q2TB90 whole entry): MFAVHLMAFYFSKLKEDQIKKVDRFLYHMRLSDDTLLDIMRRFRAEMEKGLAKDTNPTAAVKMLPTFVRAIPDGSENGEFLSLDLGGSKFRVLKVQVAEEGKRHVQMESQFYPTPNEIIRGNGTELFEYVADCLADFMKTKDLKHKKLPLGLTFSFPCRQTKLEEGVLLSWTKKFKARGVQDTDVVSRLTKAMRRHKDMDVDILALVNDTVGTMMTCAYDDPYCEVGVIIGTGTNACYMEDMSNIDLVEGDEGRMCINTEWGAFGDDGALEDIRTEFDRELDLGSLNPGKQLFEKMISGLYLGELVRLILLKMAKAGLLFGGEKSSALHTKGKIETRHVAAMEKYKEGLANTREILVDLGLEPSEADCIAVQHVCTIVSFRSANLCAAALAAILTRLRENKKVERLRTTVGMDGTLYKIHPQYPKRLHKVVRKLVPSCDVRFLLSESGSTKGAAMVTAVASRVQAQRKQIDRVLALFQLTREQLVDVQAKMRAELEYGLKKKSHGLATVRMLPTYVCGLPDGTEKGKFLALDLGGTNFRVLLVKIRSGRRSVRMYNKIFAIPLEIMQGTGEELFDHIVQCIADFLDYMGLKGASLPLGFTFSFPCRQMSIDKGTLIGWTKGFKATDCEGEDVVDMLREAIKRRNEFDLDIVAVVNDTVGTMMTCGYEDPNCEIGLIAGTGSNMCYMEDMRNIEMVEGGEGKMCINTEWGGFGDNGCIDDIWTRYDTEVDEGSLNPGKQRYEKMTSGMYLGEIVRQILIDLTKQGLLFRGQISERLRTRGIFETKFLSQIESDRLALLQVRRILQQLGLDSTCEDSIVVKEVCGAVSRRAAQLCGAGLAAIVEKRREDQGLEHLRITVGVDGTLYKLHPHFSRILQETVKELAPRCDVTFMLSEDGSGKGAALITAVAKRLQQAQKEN
Sequence of Phospholipase A2 (P04054 whole entry): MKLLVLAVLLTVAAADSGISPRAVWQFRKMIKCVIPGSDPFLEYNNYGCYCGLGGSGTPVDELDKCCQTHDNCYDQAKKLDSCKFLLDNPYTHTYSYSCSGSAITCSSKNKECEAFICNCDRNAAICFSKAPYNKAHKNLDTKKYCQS
Sequence of Photoreceptor-specific nuclear receptor (Q9Y5X4 whole entry): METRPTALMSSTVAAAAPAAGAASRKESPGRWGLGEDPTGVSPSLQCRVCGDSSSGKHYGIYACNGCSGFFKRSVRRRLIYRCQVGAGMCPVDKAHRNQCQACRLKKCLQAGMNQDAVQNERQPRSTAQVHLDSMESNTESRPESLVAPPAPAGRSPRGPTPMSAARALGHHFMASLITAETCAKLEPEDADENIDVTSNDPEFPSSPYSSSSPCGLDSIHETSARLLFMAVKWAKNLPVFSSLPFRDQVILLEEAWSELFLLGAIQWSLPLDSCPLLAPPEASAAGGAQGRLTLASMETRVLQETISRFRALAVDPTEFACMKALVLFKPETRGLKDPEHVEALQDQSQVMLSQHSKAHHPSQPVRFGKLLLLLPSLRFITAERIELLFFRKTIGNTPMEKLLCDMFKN
Sequence of Wee1-like protein kinase (P30291 whole entry): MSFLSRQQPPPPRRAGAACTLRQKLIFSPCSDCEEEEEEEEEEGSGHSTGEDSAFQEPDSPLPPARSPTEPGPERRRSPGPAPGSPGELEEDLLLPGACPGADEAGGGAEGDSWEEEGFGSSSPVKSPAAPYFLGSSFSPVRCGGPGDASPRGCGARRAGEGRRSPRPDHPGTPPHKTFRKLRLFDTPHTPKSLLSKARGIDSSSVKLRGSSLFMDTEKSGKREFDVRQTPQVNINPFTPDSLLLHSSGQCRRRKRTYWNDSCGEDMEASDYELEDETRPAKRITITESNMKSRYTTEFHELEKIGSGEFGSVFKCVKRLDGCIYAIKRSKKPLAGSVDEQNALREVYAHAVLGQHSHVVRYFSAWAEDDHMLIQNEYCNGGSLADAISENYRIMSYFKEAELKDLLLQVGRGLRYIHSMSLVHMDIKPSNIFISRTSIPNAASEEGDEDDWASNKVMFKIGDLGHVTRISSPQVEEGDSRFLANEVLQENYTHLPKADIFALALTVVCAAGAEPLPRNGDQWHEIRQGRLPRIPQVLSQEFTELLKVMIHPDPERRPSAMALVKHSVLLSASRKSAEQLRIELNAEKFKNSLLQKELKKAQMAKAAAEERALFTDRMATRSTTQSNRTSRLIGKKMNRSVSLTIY
Sequence of Cyclin-dependent kinase 5/CDK5 activator 1 (Q00535 whole entry): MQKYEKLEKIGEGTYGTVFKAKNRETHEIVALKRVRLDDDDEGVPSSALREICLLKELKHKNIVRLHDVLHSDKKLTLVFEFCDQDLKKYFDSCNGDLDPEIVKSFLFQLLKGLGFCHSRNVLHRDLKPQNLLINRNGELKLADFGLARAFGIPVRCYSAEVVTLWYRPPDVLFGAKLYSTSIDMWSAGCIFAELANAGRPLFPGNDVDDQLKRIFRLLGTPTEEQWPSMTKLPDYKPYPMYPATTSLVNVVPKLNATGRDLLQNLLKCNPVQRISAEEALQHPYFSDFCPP
Sequence of Cyclin-dependent kinase 5/CDK5 activator 1 (Q15078 whole entry, further chain): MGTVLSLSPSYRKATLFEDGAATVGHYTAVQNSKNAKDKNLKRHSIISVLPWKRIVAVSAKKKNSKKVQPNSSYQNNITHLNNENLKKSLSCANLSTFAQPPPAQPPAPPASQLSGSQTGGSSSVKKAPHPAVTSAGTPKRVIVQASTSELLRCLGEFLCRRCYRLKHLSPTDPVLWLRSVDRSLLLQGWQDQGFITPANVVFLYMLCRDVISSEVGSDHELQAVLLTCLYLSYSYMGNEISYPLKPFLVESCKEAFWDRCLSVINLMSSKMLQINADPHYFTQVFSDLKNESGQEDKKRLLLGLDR
Sequence of G2/mitotic-specific cyclin-B1 (P14635 whole entry): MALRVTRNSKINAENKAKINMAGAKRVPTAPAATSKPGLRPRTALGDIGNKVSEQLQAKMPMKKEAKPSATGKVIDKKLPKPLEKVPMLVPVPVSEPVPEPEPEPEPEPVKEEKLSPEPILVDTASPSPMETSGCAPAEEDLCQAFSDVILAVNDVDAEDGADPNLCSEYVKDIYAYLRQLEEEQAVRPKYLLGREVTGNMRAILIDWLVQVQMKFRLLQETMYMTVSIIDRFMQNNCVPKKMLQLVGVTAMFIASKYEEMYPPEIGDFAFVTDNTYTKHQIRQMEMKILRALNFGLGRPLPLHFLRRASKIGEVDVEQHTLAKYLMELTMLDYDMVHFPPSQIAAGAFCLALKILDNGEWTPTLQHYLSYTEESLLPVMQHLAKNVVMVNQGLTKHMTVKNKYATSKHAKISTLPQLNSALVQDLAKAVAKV
Sequence of ORF 73 (O40947 whole entry): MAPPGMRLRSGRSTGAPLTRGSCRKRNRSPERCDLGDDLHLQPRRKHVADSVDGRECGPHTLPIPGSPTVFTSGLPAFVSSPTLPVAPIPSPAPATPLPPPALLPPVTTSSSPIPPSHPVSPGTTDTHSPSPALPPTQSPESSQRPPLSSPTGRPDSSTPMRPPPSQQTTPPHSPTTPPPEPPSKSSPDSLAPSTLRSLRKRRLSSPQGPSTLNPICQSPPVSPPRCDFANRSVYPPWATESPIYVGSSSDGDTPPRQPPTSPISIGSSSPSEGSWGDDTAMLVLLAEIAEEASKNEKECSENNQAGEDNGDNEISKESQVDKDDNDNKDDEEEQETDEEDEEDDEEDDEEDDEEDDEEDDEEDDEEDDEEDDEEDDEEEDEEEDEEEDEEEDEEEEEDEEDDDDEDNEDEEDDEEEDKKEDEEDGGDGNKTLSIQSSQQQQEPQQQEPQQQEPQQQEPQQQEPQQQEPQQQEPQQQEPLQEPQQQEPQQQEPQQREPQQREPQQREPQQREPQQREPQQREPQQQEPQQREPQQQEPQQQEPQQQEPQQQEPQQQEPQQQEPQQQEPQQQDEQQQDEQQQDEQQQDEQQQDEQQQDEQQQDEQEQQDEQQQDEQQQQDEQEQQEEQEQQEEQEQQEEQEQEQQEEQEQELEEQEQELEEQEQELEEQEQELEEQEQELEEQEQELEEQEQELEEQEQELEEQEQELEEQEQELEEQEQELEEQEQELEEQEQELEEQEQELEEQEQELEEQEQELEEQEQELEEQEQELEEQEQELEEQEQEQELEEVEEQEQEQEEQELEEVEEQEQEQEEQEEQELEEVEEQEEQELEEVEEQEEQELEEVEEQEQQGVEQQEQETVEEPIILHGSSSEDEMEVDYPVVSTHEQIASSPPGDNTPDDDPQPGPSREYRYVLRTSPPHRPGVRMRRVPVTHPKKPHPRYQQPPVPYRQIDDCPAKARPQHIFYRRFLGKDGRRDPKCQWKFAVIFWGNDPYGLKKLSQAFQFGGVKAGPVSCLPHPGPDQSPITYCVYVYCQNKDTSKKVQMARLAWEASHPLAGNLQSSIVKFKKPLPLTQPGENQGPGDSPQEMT

Compound: CCN1C(=O)/C(=C/N(C(C)=O)c2ccccc2)N(c2ccccc2)C1=S
- EC50 [1]: 18 µM (active)
- IC50 (Prothrombin): > 50 µM (not active)

Compound: Cc1cc(C)n2nc(SCc3nnc(SCc4ccccc4Cl)s3)nc2n1
- IC50 (Hexokinase HKDC1): 18.8 µM (active)
- IC50 [2]: 9.87 µM (not active)

Compound: Cn1nc(CC(=O)NC2CCCCCCCCCCC2)c2ccccc2c1=O
- EC50 [3]: 65 µM (not active)

Compound: CN(C)CCN1C(=O)C(O)=C(C(=O)c2cc3ccccc3o2)C1c1cccc(Br)c1 (centres undefined)
- EC50 [4]: > 79.4 µM (not active)
- IC50 [5]: > 39.8 µM (not active)
- IC50 [6]: 2.25 µM (active)
- EC50 [7]: > 79.4 µM (inactive)
- EC50 [8]: > 79.4 µM (not active)
- AC50 (Cytochrome P450 2C19): 31.6 µM (inconclusive)

Compound: CNS(=O)(=O)c1ccc2c3c(cccc13)C(=O)N2
- IC50 [9]: 1.6 µM (active)
- AC50 [10]: 32.6 µM (active)

Compound: Cc1cccc(NC(=O)N2CCCN(Cc3ccccc3F)C2)c1
- IC50 [11]: > 150 µM (active)

Compound: Cc1ccc(NC(=O)COc2cc(=O)n(C)c3ccccc23)nc1
- EC50 [12]: > 49.7 µM (inactive)
- EC50 (Wee1-like protein kinase): > 49.7 µM (inactive)

Compound: O=C(O)C1Nc2ccc(Br)cc2C2C=CCC12 (centres undefined)
- IC50 (Cysteine protease ATG4B): 3.94 µM (active)
- IC50 [13]: 12.8 µM (active)
- IC50 [14]: > 100 µM (not active)
- EC50 [15]: 9.81 µM (active)
- AC50 (HeLa): 106 µM (active)
- CC50 (Vero): > 40 µM (active)
- IC50 [16]: 28.7 µM (active)
- IC50 [17]: 12.3 µM (active)
- AC50 (ORF 73): 29.2 µM (active)
- EC50 [18]: 6.32 µM (active)
- IC50 [19]: 3.24 µM (active)
- IC50 (Phospholipase A2): 8.24 µM (active)
- IC50 [20]: 1.63 µM (active)
